Measurements taken from US6951647B2, “T cell binding ligand peptides and method of inducing a cellular immune response” (Cel-Sci Corporation, priority 2001, dated 2005).
Several values for one entry are separate records, joined by “and”; a condition that tells them apart may be missing. Equal entries are not always repeated.

Experiments:
Format in all cases: in vivo
[1] = system: modified HGP-30 (mH, SEQ ID NO:6); experiment: Isotype analysis (ELISA) of anti-mH antibody in sera of immunized mice; design: IgG1 / IgG2a / IgG2b / IgG3: unit not given here; conditions: for IgG1 / IgG2a / IgG2b / IgG3: ELISA signal, day 42 test bleeding; for Ig1, serial dilution 1:200 / Ig1, serial dilution 1:800 / Ig1, serial dilution 1:3200 / Ig1, serial dilution 1:12800 / Ig1, serial dilution 1:51200 / Ig1, serial dilution 1:204800 / Ig2a, serial dilution 1:200 / Ig2a, serial dilution 1:800 / Ig2a, serial dilution 1:3200 / Ig2a, serial dilution 1:12800 / Ig2a, serial dilution 1:51200 / Ig2a, serial dilution 1:204800 / Ig2b, serial dilution 1:200 / Ig2b, serial dilution 1:800 / Ig2b, serial dilution 1:3200 / Ig2b, serial dilution 1:12800 / Ig2b, serial dilution 1:51200 / Ig2b, serial dilution 1:204800 / Ig3, serial dilution 1:200 / Ig3, serial dilution 1:800 / Ig3, serial dilution 1:3200 / Ig3, serial dilution 1:12800 / Ig3, serial dilution 1:51200 / Ig3, serial dilution 1:204800: day 28 pool
Procedure: (§1) Mice in groups (5-10 animals per group as designated) are immunized with the LEAPS constructs (25 μg/dose) of SEQ ID NO's:37, 38 and 39, in 0.2 mL emulsified 1:1 with adjuvant (Seppic's ISA-51 or Corixa's microfluidized MPL S/E) on days 0 and 14. Mice are evaluated by Delayed Type of Hypersensitivity (DTH) by inoculation on day 26 with 20 μl of a solution of saline or mH (SEQ ID NO:6) (25 μg in saline) in the left or right ear respectively. The DTH response is determined by measurement of the ear thickness 48 hours later and expressed as increase in ear thickness (mm) of experimental ear compared to that of the control ear. Individual animal sera are collected for measurement of antibody on day 28, 42, 63 and 77. Sera from individual animals and group pools are evaluated for specific anti-mH antibody, for total antibody, IgG1, IgG2a and IgG3 antibody isotype and cross clade titer at selected time points as indicated.
The results of an isotype analysis of day 42 test bleedings with G′-mH (SEQ ID NO:37), G-mH (SEQ ID NO:38), J-mH (SEQ ID NO:39), F-mH (SEQ ID NO:40) and F-HGP-30 (SEQ ID NO:41), are shown in Table 1.
An isotype analysis for pools of day 28 test bleedings G-mH, G′-mH and m-HGP-30/KLH using either MPL S/E or ISA51 as adjuvant, are shown in Table 3.

modified HGP-30 = experiment: ELISA antibody screening of sera of immunized mice on modified HGP-30; conditions: for ELISA test antigen Modified HGP-30: day 42 test bleeding
Procedure: as §1, with “indicated. […]” for “indicated.”

D Clade [2] = experiment: ELISA cross clade recognition by sera of immunized mice, D Clade; conditions: for ELISA test antigen D Clade: day 42 test bleeding, Group Average
Procedure: as §1
The mouse sera for the ELISA was used at a dilution of 1:200. Again, clearly, the construct provides higher signals indicative of higher levels of the antibodies that recognized other clades besides the parental one (Clade B) of mH.
A cross clade analysis for pools of day 42 test bleedings from the same groups as used in Table 3, were obtained and the results are shown in Table 4.

D Clade [3] = experiment: as above; conditions: day 42 test bleeding, individual mouse
E Clade = experiment: ELISA cross clade recognition by sera of immunized mice, E Clade; conditions: day 42 test bleeding, individual mouse
[4] = group without '(with MPL)' (ISA51)
[5] = day 63 test bleeding, sera 1:200, individual mouse

## DGQ EEK AGV VST GLI GGG ATL YSV HQR IDV KDT KEA LEK IEE EQN KS (DGQEEKAGVVSTGLIGGGYLSGANLNL) [SEQ ID NO: 57, Peptide G′ linked by GGG spacer to modified HGP-30 (mH)]
[1]; group Average
  IgG1: 2.667
  IgG2a: 1.427
  IgG2b: 1.695
  IgG3: 1.562
[1]; individual mouse
  IgG1: 2.577 and 2.623 and 2.588 and 2.601 and 2.757 and 2.886 and 2.768 and 2.574 and 2.628 and 2.671
  IgG2a: 1.399 and 1.302 and 1.630 and 0.467 and 1.249 and 2.275 and 0.998 and 1.693 (2×) and 1.566
  IgG2b: 2.050 and 1.588 and 1.735 and 0.534 and 1.261 and 2.717 and 1.656 and 2.009 and 1.613 and 1.785
  IgG3: 1.853 and 1.268 and 1.856 and 1.229 and 2.186 and 1.921 and 1.276 and 2.181 and 0.672 and 1.183
[1]; [4]
  Ig1, serial dilution 1:200: 3.006
  Ig1, serial dilution 1:800: 2.441
  Ig1, serial dilution 1:3200: 1.755
  Ig1, serial dilution 1:12800: 1.069
  Ig1, serial dilution 1:51200: 0.367
  Ig1, serial dilution 1:204800: 0.114
  Ig2a, serial dilution 1:200: 0.729
  Ig2a, serial dilution 1:800: 0.218
  Ig2a, serial dilution 1:3200: 0.068
  Ig2a, serial dilution 1:12800: 0.025
  Ig2a, serial dilution 1:51200: 0.015
  Ig2a, serial dilution 1:204800: 0.008
  Ig2b, serial dilution 1:200: 1.420
  Ig2b, serial dilution 1:800: 0.505
  Ig2b, serial dilution 1:3200: 0.134
  Ig2b, serial dilution 1:12800: 0.054
  Ig2b, serial dilution 1:51200: 0.014
  Ig2b, serial dilution 1:204800: 0.000
  Ig3, serial dilution 1:200: 1.132
  Ig3, serial dilution 1:800: 0.358
  Ig3, serial dilution 1:3200: 0.092
  Ig3, serial dilution 1:12800: 0.020
  Ig3, serial dilution 1:51200: 0.004
  Ig3, serial dilution 1:204800: 0.000
[1]; with MPL
  Ig1, serial dilution 1:200: 2.642
  Ig1, serial dilution 1:800: 1.638
  Ig1, serial dilution 1:3200: 0.652
  Ig1, serial dilution 1:12800: 0.279
  Ig1, serial dilution 1:51200: 0.091
  Ig1, serial dilution 1:204800: 0.014
  Ig2a, serial dilution 1:200: 1.961
  Ig2a, serial dilution 1:800: 0.899
  Ig2a, serial dilution 1:3200: 0.263
  Ig2a, serial dilution 1:12800: 0.081
  Ig2a, serial dilution 1:51200: 0.028
  Ig2a, serial dilution 1:204800: 0.005
  Ig2b, serial dilution 1:200: 1.872
  Ig2b, serial dilution 1:800: 0.881
  Ig2b, serial dilution 1:3200: 0.253
  Ig2b, serial dilution 1:12800: 0.104
  Ig2b, serial dilution 1:51200: 0.011
  Ig2b, serial dilution 1:204800: 0.006
  Ig3, serial dilution 1:200: 1.965
  Ig3, serial dilution 1:800: 0.805
  Ig3, serial dilution 1:3200: 0.215
  Ig3, serial dilution 1:12800: 0.045
  Ig3, serial dilution 1:51200: 0.005
  Ig3, serial dilution 1:204800: 0.000
[1]; day 42 test bleedings, Table 1, in words
  Levels of TH1 preferred isotypes relative to TH2 isotype (IgG1): significantly higher signals
Modified HGP-30; day 42, first set of groups (animals 4637-4648, 4674-4678), individual animal
  A 490 1:200 dilution on plates coated with modified HGP-30: 2.178 A 490 and 1.411 A 490 and 2.314 A 490 and 2.555 A 490 and 2.404 A 490 and 2.273 A 490
Modified HGP-30; day 42, first set of groups, Average
  A 490 1:200 dilution on plates coated with modified HGP-30: 2.189 A 490
Modified HGP-30; day 42, second set of groups (animals 4662-4673, 4679-4683), individual animal
  A 490 1:200 dilution on plates coated with modified HGP-30: 1.968 A 490 and 1.422 A 490 and 1.755 A 490 and 2.450 A 490 and 2.403 A 490 and 1.399 A 490
Modified HGP-30; day 42, second set of groups, Average
  A 490 1:200 dilution on plates coated with modified HGP-30: 1.899 A 490
Modified HGP-30; group (A), Group Average
  ELISA test antigen Modified HGP-30: 2.433
Modified HGP-30; group (A), individual mouse
  ELISA test antigen Modified HGP-30: 2.307 and 1.589 and 2.432 and 2.867 and 2.627 and 2.780
Modified HGP-30; group (B), Group Average
  ELISA test antigen Modified HGP-30: 2.672
Modified HGP-30; group (B), individual mouse
  ELISA test antigen Modified HGP-30: 2.330 and 2.213 and 2.534 and 3.358 and 3.030 and 2.571
Modified HGP-30; [5]
  ELISA signal on modified HGP-30: 2.737 and 2.471 and 2.569 and 2.093 and 2.512 and 3.115 and 3.153 and 2.922 and 2.236 and 2.534
D Clade [2]; group (A)
  ELISA test antigen D Clade: 0.030
D Clade [2]; group (B)
  ELISA test antigen D Clade: 0.755
D Clade [2]; [5]
  ELISA signal on D Clade: 1.527 and 0.438 and 0.408 and 0.125 and 1.471 and 0.772 and 1.328 and 1.370 and 0.000 and 0.374
D Clade [3]; group (A)
  ELISA test antigen D Clade: 0.052 and 0.000 (2×) and 0.010 and 0.003 and 0.114
D Clade [3]; group (B)
  ELISA test antigen D Clade: 0.087 and 0.095 and 0.185 and 1.799 and 1.727 and 0.637
E Clade; group (A)
  ELISA test antigen E Clade: 0.092 and 0.000 (3×) and 0.018 and 0.101
E Clade; group (B)
  ELISA test antigen E Clade: 0.000 (2×) and 0.054 and 0.358 and 0.113 and 0.037
